Measured values reported in patent US12329753B2, “Phosphodiesterase inhibitor treatment” (Cyrano Therapeutics, Inc., priority 2008, dated 2025).

How the values were obtained:
patients with hyposmia = experiment: Subjective overall smell function response to oral theophylline; format: in vivo, human
Experimental: Independently, patients were also required to grade their ability to smell daily on a scale from 0-100, with 0 reflecting no overall smell function over a 24 hour period, 100 reflecting normal overall smell function over this period and numbers between 0-100 reflecting their estimation of their overall ability to smell odors over this period.
After determination of hyposmia, patients were treated in an open label, fixed design, controlled open trial. Patients were given an oral extended release theophylline in divided daily doses taken in the middle of breakfast and lunch. All patients were initially given 200 mg of theophylline; changes in this dose were made based upon subjective responses to therapy. If at a subsequent return visit, patients reported ≥5% subjective improvement in overall smell function, they continued on this same dose of theophylline and were reevaluated after four to six months of continued treatment. Results from any subsequent return from these improved patients were not included in any subsequent data report. All subsequent comparisons between treated and untreated patients were made only between those patients continuing in the study compared to their own measurements obtained in the untreated state. If patients reported <5% subjective improvement, their theophylline dose was increased by 200 mg daily and they were scheduled for retesting at the study site after two to four months at this new dosage. For patients that reported <5% improvement, this sequence continued until patients reached 800 mg of theophylline, at which time the study was considered completed.
Patients returned for reevaluation after two to four months of treatment. Measurements of blood serum theophylline were measured by a fluorescence polarization assay (Abbott, Chicago, IL). At this time, subjective changes in smell function were measured independently (compared to patient's memory of previous normal smell function monitored by use of the patients' daily measurements) using the scale from −100-0-+100 previously described (vs). After independently recording their subjective responses, smell function was measured for all four odors with DT, RT, ME and H determined without recourse to prior measurements.
Subjective overall changes in smell acuity were reported by telephone and by FAX or email at two-four month intervals after treatment was initiated using the standardized form in which they measured daily changes in smell acuity using the −100-0-+100 scale as noted above (vs). Using the same criteria noted above, if at their initial two-four month call-in they reported improvement in smell acuity of ≥5%, they continued at 200 mg and returned to the study site at four-six months on this treatment dose. If they reported improvement in smell acuity of <5% their dose of theophylline was increased to 400 mg for an additional two-four months and they then called the study site at the end of this period.

total PDE activity = details: human lung extracts; therapeutic concentrations; cited from earlier work
Hyposmic patients = experiment: Open label trial of inhalable PDE inhibitor in hyposmic patients (Examples 3, 4); format: in vivo, human; details: nasal administration, not more than 500 μg
Experimental: Hyposmic patients for whom the etiology of smell loss is not associated with head injury or allergic rhinitis are enrolled in an open label trial of inhalable theophylline. Patients are started at an initial dose of not more than 500 μg formulated as a liquid spray or dry powder to be delivered as a metered dose. Initially only local patients are enrolled so that quicker dose titration is achieved. Groups of 5 patients are started on not more than 500 μg of theophylline and continued for 1 month.
Patients are tested for improvement in smell acuity using the standard forced choice technique using four odors as described in Example 1. Additionally, subjective measurements of smell function are obtained using a scale from 0-100 as described in Example 1. Blood samples are also drawn to ascertain blood theophylline level to gauge its relationship to the expected recovery of smell.
Hyposmic patients for whom the etiology of smell loss is not associated with head injury or allergic rhinitis are enrolled in an open label trial of an inhalable PDE1 inhibitor. […]

Cn1c(=O)c2[nH]cnc2n(C)c1=O [theophylline]
patients improved ≥5% (subjective) (patients with hyposmia; oral 200 mg daily, 34 of 199 returning patients): 17.1%
improved patients who considered smell function returned to normal (patients with hyposmia; oral 200 mg daily, nine of the 34 improved): 26.5%
patients reporting return to normal (patients with hyposmia; oral 200 mg, one of the improved non-returning patients): 14.3%
patients reporting >5% improvement (patients with hyposmia; oral 200 mg, seven of the 15 non-returning patients): 46.7%
patients improved ≥5% (subjective) (patients with hyposmia; oral 400 mg daily, 35 of 120 patients): 29.2%
improved patients who considered smell function returned to normal (patients with hyposmia; oral 400 mg daily, three of the 35 improved): 8.6%
patients who considered smell function returned to normal (patients with hyposmia; oral 600 mg daily, 17 of 160 patients): 10.6%
patients improved ≥5% (subjective) (patients with hyposmia; oral 600 mg daily, 66 of 160 patients): 41.2%
patients improved ≥5% (subjective) (patients with hyposmia; oral 800 mg daily, 15 of 28 patients): 53.6%
patients who considered smell function returned to normal (patients with hyposmia; oral 800 mg daily, three patients): 33%
improved patients reporting return to normal (patients with hyposmia; oral 200-600 mg, Type III hyposmia, 3 of 5): 60%
improved patients reporting return to normal (patients with hyposmia; oral 200-800 mg, Type I hyposmia, 5 of 32): 15.6%
improved patients reporting return to normal (patients with hyposmia; oral 200-800 mg, Type II hyposmia, 26 of 129): 20.2%
time course of subjective response (patients with hyposmia; oral theophylline): little or no improvement before four-six weeks of treatment
responsive patients who considered smell function returned to normal (patients with hyposmia; whole study, 34 of 157): 21.7%
inhibition of total PDE activity (total PDE activity): 5 to 10%
recovery of smell acuity versus oral administration (Hyposmic patients): at least an equivalent recovery of smell acuity
